Results taken from patent US10968214B2, “KRas G12C inhibitors” (Eli Lilly and Company, priority 2018, dated 2021).
Several values for one entry are separate records, joined by “and”; a condition that tells them apart may be missing. Equal entries are not always repeated. Where two headings read alike, the source gives them in different places.

Tests used:
H1792 = assay: CellTiterGlo Cell Proliferation Assay, H1792; type: cell-based; settings: Homo sapiens, NCI-H1792, KRas G12C, Lung, 96 hr
Experimental: (§1) A panel of tumor cell lines harboring KRas G12C or other KRas mutations are collected (Table 6). All cell lines are from ATCC or other sources indicated.
(§2) Typically cells are cultured in RPMI1640 or Dulbecco's modified Eagle's medium (DMEM, GIBCO) supplemented with 10% FBS (GIBCO, Invitrogen). For 2D culture cells (4×10^3/well) maintained in growth medium described above, are plated onto 96 well tissue culture plates Corning® Cat. 3603) a day before the treatment. For 3D culture 8000 cells/well are seeded onto 96 well ultra-low attachment tissue culture plates (Corning, #3474). The cells are treated compound for 96 hr, and then are analyzed for viability using the CellTiterGlo® Luminescent Cell Viability Assay® (Promega #G7572 for 2D and Promega #G9683 for 3D cultures) according to manufacturer's instructions and an EnVision™ plate reader. Nonlinear regression and sigmoidal dose-response curves are used to calculate the half maximal inhibitory concentration (IC50) with GraphPad Prism 4® software.

H2122 xenograft = assay: Anti-tumor growth activity, lung cancer H2122 xenograft mouse model; type: in vivo; settings: for Tumor Growth Inhibition (%) or Regression (−%): H2122 Lung
Experimental: To evaluate in vivo target inhibition and anti-tumor efficacy of a compound, Human lung cancer cells, H358 or H2122 are implanted into nude mice xenograft tumor models. Either H358 or H2122 cells (10×10^6 in a 1:1 Matrigel® mix, 0.2 mL total volume) are implanted by subcutaneous injection in hind leg of nude female mice (Harlan Laboratories). A total of 5 mice each group are used for efficacy study, and a total of 3-4 mice each group are used for target engagement and PD study. Treatment is initiated with oral administration (gavage) of a test compound or vehicle (20% Captisol®, 25 mM phosphate, pH 2.0 in 0.2 mL volume when the tumor size reaches approximately […]. Tumor growth and body weight are monitored over time to evaluate efficacy and signs of toxicity. Bidimensional measurements of tumors are performed twice a week and tumor volumes are calculated based on mid-axis length and mid-axis width. Tumor volume data are transformed to a log scale to equalize variance across time and treatment groups. The log volume data are analyzed with a two-way repeated measures analysis of variance by time and treatment using the mixed procedures in SAS software (version 8.2). The correlation model for the repeated measures is spatial power. Treated groups are compared to the control group at each time point. The mixed procedure is also used separately for each treatment group to calculate adjusted means and standard errors at each time point. Both analyses account for the autocorrelation within each animal. The adjusted means and standard errors are plotted for each treatment group versus time.
H2122 lung tumor cells (10×10^6) are implanted by subcutaneous injection in hind leg of nude female mice (Taconic Biosciences). A total of 5 mice each group are used for efficacy study.

HCC-44 = assay: CellTiterGlo Cell Proliferation Assay, HCC-44; type: cell-based; settings: Homo sapiens, HCC44, KRas G12C, Lung, 96 hr, read-out: IC50 (μM) in 2 D cell proliferation
Experimental: as §1, §2

D122-96 = assay: Combination 4 day growth assay (Cell TiterGlo), D122-96; type: cell-based; settings: Mus musculus, 96 h, single treatment, read-out: Absolute IC50
Experimental: (§3) Cell lines for this study are obtained from ATCC and grown under ATCC recommended conditions, except for LXFA-983L, which is obtained from Oncotest/Charles Rivers Laboratories, Wilmington, Mass. and D122-96, which is obtained from L. Eisenbach (Weizman Institute of Science, Rehovot, Israel)—both grown under recommended conditions. […] The proliferation assay is performed as a 4 day growth assay using Cell TiterGlo® as the readout. Briefly, cells are plated in 96-well cell culture plates and allowed to adhere overnight at 37° C. The following day, cells are treated with compounds, either single treatments or combination treatments. First, the testing compounds are serially diluted in DMSO, followed by dilution into media as a 5× concentration with 1% DMSO, and finally added to cells in media to dilute to 1×. The cells are incubated at 37° C. for 4 more days. At the end of the incubation period, Cell TiterGlo® reagent is mixed and added to the wells. After 10 minutes, the luminescence is read by a Perkin Elmer Envision instrument. Absolute IC50 values generated by a 4-parameter logistics model for the single and combination treatments are generated, followed by combination indexes for each combination treatment and cell line. The combination IC50 values are adjusted based on the total concentration of each compound when added together. […] The combination index (CI) measures the degree to which the potency of a combination therapy differs from the expected-if-additive potency and is based on the Loewe definition of additivity.
(§4) [formula] Where • CAy and CBy are the concentrations of therapies A and B that produce an effect, y, when given in combination • ICAy and ICBy are the concentrations of A and B that produce an effect, y, when given individually The biological interpretation of the combination index is as follows: synergistic if the combination index <0.5, additive if the combination index is between 0.5 and 2, and antagonistic if the combination index is >2.

SW837 = assay: Combination 4 day growth assay (Cell TiterGlo), SW837; type: cell-based; settings: Homo sapiens, SW837, 96 h, single treatment, read-out: Absolute IC50
Experimental: as §3, §4

MIA Paca-2 = assay: Combination 4 day growth assay (Cell TiterGlo), MIA Paca-2; type: cell-based; settings: Homo sapiens, MIA PaCa-2, 96 h, single treatment, read-out: Absolute IC50
Experimental: as §3, §4

SW1573 = assay: Combination 4 day growth assay (Cell TiterGlo), SW1573; type: cell-based; settings: Homo sapiens, 96 h, single treatment, read-out: Absolute IC50
Experimental: as §3, §4

H2122 = assay: Combination 4 day growth assay (Cell TiterGlo), H2122; type: cell-based; settings: Homo sapiens, NCI-H2122, 96 h, single treatment, read-out: Absolute IC50
Experimental: as §3, §4

C=CC(=O)N1CCN(c2ncnc3c(F)c(-c4ccc(F)c5sc(N)nc45)c(Cl)cc23)CC1 [Example 1, 1-{4-[7-(2-Amino-7-fluoro-1,3-benzothiazol-4-yl)-6-chloro-8-fluoroquinazolin-4-yl]piperazin-1-yl}prop-2-en-1-one]
IC50 (H1792; read-out: IC50 (μM) in 2 D cell proliferation): 3.93 µM
IC50 (H1792; read-out: IC50 (μM) in 3 D spheroid cell proliferation): 3.84 µM
Tumor Growth Inhibition (%) or Regression (−%) (H2122 xenograft; 30 mg/kg BID, 28 Day, oral, negative = regression): 72.97%
Tumor Growth Inhibition (%) or Regression (−%) (H2122 xenograft; 30 mg/kg QD, 28 Day, oral, negative = regression, 30 mg/kg): 77.17% and 77.2%
Tumor Growth Inhibition (%) or Regression (−%) (H2122 xenograft; 100 mg/kg QD, 28 Day, oral, negative = regression, 100 mg/kg): 91.06% and 91.1%
Tumor Growth Inhibition (%) or Regression (−%) (H2122 xenograft; Example 1 30 mg/kg QDx28): 77.2
Tumor Growth Inhibition (%) or Regression (−%) (H2122 xenograft; Example 1 100 mg/kg QDx28): −1.4
animal body weight loss (H2122 xenograft; H2122 xenograft mice, 30 mg/kg once or twice daily or 100 mg/kg once daily for 28 days, oral): No significant animal body weight loss was observed
IC50 (HCC-44): 0.221 µM
IC50 (D122-96): 124 nM
IC50 (SW837): 101 nM
IC50 (MIA Paca-2): 22 nM
IC50 (SW1573): > 10 µM
IC50 (H2122): 2870 nM
